From PMC11345841, “Exploring 2-Sulfonylpyrimidine Warheads as Acrylamide Surrogates for Targeted Covalent Inhibition: A BTK Story” (Journal of Medicinal Chemistry, 2024)
Read-outs that look alike come from different tables or passages of the source.

Key:
CTK = molecular target: T1, CTK (Homo sapiens, UniProt P42679); experiment: KINOMEscan ScanTK; format: binding
T1 construct: purchased Eurofins DiscoverX KINOMEscan (scanTK)
T1 sequence (P42679 1-507): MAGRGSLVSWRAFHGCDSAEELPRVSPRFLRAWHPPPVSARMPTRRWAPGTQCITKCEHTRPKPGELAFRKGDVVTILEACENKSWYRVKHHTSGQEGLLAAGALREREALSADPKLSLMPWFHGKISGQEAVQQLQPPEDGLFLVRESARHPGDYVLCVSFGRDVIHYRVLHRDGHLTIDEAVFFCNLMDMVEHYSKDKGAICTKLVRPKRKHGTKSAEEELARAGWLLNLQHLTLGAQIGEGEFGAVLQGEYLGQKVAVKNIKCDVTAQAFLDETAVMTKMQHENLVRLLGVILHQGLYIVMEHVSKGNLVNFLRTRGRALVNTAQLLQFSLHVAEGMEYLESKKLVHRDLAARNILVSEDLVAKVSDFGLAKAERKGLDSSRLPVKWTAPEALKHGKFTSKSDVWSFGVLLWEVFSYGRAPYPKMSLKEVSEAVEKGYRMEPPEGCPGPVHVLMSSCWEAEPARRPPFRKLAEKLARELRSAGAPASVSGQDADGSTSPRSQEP

wild-type BTK = wild-type BTK (Homo sapiens, UniProt Q06187); experiment: NanoBRET target engagement assay in HEK293 cells; conditions: for NanoBRET IC50: HEK293 cells, 1 h treatment
FLT3(ITD,D835V) = experiment: KINOMEscan ScanTK; format: binding; conditions: for % difference (compound - Ib %Control) / %Control: @1000nM
DDR1 = molecular target: T2, DDR1 (Homo sapiens, UniProt Q08345); experiment: KINOMEscan ScanTK; format: binding
T2 construct: purchased Eurofins DiscoverX KINOMEscan (scanTK)

FLT3 = molecular target: T3, FLT3 (Homo sapiens, UniProt P36888); experiment: KINOMEscan ScanTK; format: binding
T3 construct: purchased Eurofins DiscoverX KINOMEscan (scanTK)
T3 sequence (P36888 27-993): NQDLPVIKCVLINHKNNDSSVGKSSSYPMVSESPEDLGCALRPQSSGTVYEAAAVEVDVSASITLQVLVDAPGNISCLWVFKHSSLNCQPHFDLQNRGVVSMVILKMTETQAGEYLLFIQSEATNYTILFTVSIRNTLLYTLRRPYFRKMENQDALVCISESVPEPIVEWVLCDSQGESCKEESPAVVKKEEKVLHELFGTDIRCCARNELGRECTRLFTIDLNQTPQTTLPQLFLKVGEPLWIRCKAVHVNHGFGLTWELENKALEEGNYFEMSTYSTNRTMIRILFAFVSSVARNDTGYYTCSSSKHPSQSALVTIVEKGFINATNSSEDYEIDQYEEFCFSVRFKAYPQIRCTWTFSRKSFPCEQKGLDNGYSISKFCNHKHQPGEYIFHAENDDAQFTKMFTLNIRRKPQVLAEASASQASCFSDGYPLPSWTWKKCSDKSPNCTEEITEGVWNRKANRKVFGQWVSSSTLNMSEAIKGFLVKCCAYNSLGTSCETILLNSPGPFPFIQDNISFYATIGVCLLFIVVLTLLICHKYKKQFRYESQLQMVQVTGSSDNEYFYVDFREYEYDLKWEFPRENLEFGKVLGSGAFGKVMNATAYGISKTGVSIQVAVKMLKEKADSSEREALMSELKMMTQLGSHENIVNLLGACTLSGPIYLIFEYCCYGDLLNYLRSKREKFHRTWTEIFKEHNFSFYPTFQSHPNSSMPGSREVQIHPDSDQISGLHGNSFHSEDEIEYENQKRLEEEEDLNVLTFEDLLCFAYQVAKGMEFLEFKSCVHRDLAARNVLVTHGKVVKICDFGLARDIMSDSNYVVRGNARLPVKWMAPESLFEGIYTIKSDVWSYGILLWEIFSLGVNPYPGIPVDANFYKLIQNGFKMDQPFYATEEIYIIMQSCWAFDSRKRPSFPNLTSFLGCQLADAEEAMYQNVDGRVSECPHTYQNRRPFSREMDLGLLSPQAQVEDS

FER = molecular target: T4, FER (Homo sapiens, UniProt P16591); experiment: KINOMEscan ScanTK; format: binding
T4 construct: purchased Eurofins DiscoverX KINOMEscan (scanTK)

MET(M1250T) = molecular target: T5, MET(M1250T) (Homo sapiens, UniProt P08581, M1250T); experiment: KINOMEscan ScanTK; format: binding
T5 construct: purchased Eurofins DiscoverX KINOMEscan (scanTK)

KIT(V559D,V654A) = molecular target: T6, KIT(V559D,V654A) (Homo sapiens, UniProt P10721, V559D/V654A); experiment: KINOMEscan ScanTK; format: binding
T6 construct: purchased Eurofins DiscoverX KINOMEscan (scanTK)

LTK = molecular target: T7, LTK (Homo sapiens, UniProt P29376); experiment: KINOMEscan ScanTK; format: binding
T7 construct: purchased Eurofins DiscoverX KINOMEscan (scanTK)

FRK = molecular target: T8, FRK (Homo sapiens, UniProt P42685); experiment: KINOMEscan ScanTK; format: binding
T8 construct: purchased Eurofins DiscoverX KINOMEscan (scanTK)

EGFR(L858R) = molecular target: T9, EGFR(L858R) (Homo sapiens, UniProt P00533, L858R); experiment: KINOMEscan ScanTK; format: binding
T9 construct: purchased Eurofins DiscoverX KINOMEscan (scanTK)

ABL1-nonphosphorylated = molecular target: T10, ABL1-nonphosphorylated (Homo sapiens, UniProt P00519); experiment: KINOMEscan ScanTK; format: binding
T10 construct: purchased Eurofins DiscoverX KINOMEscan (scanTK)

INSR = molecular target: T11, INSR (Homo sapiens, UniProt P06213); experiment: KINOMEscan ScanTK; format: binding
T11 construct: purchased Eurofins DiscoverX KINOMEscan (scanTK)

[1] = molecular target: T12, JAK3(JH1domain-catalytic) (Homo sapiens, UniProt P52333); experiment: KINOMEscan ScanTK; format: binding; conditions: for difference in %Control from compound Ib at 1 µM / remaining binding at 1 µM: JAK3(JH1domain-catalytic); for inhibition at 1 µM: ScanTK
T12 construct: JAK3(JH1domain-catalytic); purchased Eurofins DiscoverX KINOMEscan (scanTK)

ROS1 = molecular target: T13, ROS1 (Homo sapiens, UniProt P08922); experiment: KINOMEscan ScanTK; format: binding; conditions: for %Control difference versus reference Ib at 1 µM: read-out: % difference (compound - Ib %Control)
T13 construct: purchased Eurofins DiscoverX KINOMEscan (scanTK)

T10 sequence (P00519 whole entry): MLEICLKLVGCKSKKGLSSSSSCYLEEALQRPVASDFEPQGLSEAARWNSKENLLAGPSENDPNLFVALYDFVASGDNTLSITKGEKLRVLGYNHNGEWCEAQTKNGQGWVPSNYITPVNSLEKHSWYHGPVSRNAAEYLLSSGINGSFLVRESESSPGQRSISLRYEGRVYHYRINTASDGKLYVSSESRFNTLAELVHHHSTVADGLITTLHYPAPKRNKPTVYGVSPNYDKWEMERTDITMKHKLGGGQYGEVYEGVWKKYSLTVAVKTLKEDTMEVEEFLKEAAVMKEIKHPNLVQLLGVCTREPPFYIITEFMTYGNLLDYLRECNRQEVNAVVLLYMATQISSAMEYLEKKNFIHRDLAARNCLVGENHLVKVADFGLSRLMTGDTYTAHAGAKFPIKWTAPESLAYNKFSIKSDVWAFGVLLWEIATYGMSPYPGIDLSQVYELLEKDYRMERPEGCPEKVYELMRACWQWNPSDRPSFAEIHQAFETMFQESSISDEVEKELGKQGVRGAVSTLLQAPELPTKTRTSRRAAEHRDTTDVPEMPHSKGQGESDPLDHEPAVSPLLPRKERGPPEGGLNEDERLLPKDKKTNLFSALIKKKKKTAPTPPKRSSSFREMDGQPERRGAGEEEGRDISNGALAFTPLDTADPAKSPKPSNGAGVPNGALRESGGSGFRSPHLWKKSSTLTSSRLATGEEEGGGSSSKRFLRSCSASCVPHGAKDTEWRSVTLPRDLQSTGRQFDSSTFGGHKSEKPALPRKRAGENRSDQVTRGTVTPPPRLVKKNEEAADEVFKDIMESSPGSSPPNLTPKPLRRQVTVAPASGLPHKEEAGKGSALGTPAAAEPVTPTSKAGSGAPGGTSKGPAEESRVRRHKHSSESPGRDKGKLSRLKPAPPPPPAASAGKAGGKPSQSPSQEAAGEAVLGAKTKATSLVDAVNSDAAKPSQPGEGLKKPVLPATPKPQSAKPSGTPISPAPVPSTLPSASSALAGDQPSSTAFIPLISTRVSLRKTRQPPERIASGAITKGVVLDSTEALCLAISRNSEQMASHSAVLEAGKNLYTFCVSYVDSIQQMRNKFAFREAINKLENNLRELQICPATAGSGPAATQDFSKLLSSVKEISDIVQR
T4 sequence (P16591 whole entry): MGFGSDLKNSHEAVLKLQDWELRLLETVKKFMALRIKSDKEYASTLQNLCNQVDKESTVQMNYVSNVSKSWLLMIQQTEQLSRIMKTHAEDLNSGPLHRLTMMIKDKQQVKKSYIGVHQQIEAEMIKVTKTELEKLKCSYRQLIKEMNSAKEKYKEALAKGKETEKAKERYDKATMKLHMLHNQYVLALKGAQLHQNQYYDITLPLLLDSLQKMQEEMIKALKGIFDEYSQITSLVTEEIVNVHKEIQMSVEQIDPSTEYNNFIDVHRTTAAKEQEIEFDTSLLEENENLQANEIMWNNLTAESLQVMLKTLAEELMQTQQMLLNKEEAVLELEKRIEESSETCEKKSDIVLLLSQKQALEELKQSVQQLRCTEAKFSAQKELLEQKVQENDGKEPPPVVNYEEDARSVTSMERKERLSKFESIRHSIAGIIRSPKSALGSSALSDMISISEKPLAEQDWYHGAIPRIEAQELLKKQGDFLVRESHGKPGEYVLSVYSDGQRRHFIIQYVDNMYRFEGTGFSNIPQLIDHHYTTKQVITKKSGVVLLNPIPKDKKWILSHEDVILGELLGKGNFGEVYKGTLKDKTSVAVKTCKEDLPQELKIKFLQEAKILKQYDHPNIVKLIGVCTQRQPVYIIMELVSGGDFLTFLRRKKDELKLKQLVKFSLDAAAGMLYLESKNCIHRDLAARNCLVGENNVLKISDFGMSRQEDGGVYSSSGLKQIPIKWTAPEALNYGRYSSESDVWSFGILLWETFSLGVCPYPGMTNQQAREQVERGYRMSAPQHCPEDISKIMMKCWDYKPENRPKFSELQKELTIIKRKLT
T8 sequence (P42685 whole entry): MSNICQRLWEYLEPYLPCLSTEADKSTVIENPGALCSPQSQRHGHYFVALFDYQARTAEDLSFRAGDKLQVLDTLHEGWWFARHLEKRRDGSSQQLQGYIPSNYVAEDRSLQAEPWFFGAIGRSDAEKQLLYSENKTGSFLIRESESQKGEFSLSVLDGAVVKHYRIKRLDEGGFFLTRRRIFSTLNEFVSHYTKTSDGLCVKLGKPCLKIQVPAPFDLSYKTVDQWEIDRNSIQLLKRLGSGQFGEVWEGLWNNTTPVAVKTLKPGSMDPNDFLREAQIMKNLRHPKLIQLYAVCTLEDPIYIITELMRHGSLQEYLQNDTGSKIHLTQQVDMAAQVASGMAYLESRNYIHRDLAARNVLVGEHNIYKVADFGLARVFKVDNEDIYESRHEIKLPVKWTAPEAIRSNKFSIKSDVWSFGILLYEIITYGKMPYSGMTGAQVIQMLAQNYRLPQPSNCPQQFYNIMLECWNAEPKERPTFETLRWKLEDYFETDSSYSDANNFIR
T7 sequence (P29376 17-864): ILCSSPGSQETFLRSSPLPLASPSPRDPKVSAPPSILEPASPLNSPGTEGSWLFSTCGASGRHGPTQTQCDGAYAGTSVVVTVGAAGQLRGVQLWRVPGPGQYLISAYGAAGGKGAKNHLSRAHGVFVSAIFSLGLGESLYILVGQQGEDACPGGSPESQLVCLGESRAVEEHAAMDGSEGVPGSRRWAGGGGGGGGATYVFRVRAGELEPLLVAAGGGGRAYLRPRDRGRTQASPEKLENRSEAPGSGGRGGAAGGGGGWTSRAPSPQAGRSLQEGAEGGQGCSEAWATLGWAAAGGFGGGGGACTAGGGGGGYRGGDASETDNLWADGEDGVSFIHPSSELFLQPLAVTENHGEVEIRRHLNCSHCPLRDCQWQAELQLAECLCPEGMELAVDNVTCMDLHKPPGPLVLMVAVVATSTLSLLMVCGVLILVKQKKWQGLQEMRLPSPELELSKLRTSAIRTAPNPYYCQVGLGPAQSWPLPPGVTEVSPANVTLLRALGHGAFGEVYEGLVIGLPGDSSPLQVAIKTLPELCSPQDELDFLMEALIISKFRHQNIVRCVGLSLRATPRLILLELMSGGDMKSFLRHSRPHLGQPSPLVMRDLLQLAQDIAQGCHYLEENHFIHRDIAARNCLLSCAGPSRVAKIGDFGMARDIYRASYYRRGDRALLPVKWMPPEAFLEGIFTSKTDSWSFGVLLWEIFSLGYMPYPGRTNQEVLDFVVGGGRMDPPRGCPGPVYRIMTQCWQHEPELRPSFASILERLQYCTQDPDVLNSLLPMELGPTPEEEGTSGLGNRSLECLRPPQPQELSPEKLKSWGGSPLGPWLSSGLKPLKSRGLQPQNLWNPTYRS
Sequence of wild-type BTK (Q06187 whole entry): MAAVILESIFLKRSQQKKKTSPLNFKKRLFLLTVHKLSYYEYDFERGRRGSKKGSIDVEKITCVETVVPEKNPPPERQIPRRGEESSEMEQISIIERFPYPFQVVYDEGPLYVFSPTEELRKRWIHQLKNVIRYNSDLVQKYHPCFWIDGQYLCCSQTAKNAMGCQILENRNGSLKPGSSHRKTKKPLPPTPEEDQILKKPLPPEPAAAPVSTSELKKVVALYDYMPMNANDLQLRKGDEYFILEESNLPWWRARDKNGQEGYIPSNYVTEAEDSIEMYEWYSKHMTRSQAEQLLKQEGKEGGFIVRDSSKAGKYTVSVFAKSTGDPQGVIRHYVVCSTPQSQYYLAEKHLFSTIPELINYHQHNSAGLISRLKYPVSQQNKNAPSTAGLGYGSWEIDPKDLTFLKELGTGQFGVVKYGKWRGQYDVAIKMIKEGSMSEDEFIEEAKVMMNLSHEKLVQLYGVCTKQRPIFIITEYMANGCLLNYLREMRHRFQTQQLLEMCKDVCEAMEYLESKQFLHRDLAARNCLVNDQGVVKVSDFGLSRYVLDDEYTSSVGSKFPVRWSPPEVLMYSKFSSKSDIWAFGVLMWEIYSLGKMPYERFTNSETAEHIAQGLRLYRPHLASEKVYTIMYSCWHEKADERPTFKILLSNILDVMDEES
T2 sequence (Q08345 19-913): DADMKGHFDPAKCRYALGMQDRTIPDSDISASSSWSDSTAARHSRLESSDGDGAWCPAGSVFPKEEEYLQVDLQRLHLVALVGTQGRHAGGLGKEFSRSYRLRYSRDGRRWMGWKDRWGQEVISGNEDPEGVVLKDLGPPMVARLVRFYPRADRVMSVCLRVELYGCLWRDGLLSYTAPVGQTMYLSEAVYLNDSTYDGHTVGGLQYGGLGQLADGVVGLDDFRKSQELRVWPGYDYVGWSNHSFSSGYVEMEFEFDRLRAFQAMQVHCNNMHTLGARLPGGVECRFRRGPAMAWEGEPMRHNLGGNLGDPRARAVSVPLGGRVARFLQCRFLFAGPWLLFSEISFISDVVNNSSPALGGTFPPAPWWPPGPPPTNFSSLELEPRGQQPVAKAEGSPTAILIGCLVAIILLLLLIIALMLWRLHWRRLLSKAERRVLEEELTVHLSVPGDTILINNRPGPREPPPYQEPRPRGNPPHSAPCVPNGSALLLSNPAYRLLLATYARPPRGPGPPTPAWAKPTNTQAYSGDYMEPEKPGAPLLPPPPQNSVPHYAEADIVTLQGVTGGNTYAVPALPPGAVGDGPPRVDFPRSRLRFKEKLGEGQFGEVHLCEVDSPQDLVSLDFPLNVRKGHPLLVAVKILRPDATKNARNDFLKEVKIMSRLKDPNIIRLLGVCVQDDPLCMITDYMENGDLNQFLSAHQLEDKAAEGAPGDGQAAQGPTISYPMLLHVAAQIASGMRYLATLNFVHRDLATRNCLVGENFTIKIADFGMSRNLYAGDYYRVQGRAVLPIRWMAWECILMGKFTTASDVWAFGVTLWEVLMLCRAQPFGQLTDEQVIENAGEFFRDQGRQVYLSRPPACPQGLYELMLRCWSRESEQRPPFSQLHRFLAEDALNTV

Structure (SMILES): Cc1cnc(S(C)(=O)=O)nc1N1CCCC(n2nc(-c3ccc(Oc4ccccc4)cc3)c3c(N)ncnc32)C1 (centres unmarked) [Compound 8a, 1-(1-(5-Methyl-2-(methylsulfonyl)pyrimidin-4-yl)piperidin-3-yl)-3-(4-phenoxyphenyl)-1H-pyrazolo[3,4-d]pyrimidin-4-amine]
- difference in %Control versus compound Ib at 1 µM (CTK; @1000nM): -13%
- remaining binding at 1 µM (CTK; @1000nM, read-out: %Control): 67%
- remaining binding at 1 µM (CTK; read-out: %Control @1000nM): 67%
- IC50 (wild-type BTK): 8 ± 9 nM
- NanoBRET IC50 (wild-type BTK): low to subnanomolar
- %Control @1000nM (FLT3(ITD,D835V)): 78%
- % difference (compound - Ib %Control) (FLT3(ITD,D835V)): 1%
- %Control (FLT3(ITD,D835V)): 78%
- difference in %Control from compound Ib at 1 µM (DDR1; @1000nM): 5%
- remaining binding at 1 µM (DDR1; @1000nM, read-out: %Control): 83%
- remaining binding at 1 µM (DDR1; read-out: %Control @1000nM): 83%
- difference in %Control from compound Ib at 1 µM (FLT3; @1000nM): 21%
- remaining binding at 1 µM (FLT3; @1000nM, read-out: %Control): 54%
- remaining binding at 1 µM (FLT3; read-out: %Control @1000nM): 54%
- difference in %Control versus compound Ib at 1 µM (FER; @1000nM): 0%
- remaining binding at 1 µM (FER; @1000nM, read-out: %Control): 100%
- remaining binding at 1 µM (FER; read-out: %Control @1000nM): 100%
- remaining binding at 1 µM (MET(M1250T); @1000nM, read-out: %Control): 88%
- remaining binding at 1 µM (MET(M1250T); read-out: %Control @1000nM): 88%
- remaining binding at 1 µM (KIT(V559D,V654A); @1000nM, read-out: %Control): 90%
- remaining binding at 1 µM (KIT(V559D,V654A); read-out: %Control @1000nM): 90%
- remaining binding at 1 µM (LTK; @1000nM, read-out: %Control): 93%
- remaining binding at 1 µM (LTK; read-out: %Control @1000nM): 93%
- difference in %Control versus compound Ib at 1 µM (FRK; @1000nM): 38.7%
- remaining binding at 1 µM (FRK; @1000nM, read-out: %Control): 48%
- remaining binding at 1 µM (FRK; read-out: %Control @1000nM): 48%
- %Control difference from compound Ib at 1 µM (EGFR(L858R); @1000nM): 81.1%
- remaining binding at 1 µM (EGFR(L858R); @1000nM, read-out: %Control): 83%
- remaining binding at 1 µM (EGFR(L858R); read-out: %Control @1000nM): 83%
- difference in %Control from reference compound Ib at 1 µM (ABL1-nonphosphorylated; @1000nM): 38.5%
- remaining binding at 1 µM (ABL1-nonphosphorylated; @1000nM, read-out: %Control): 47%
- remaining binding at 1 µM (ABL1-nonphosphorylated; read-out: %Control @1000nM): 47%
- difference in %Control versus compound Ib at 1 µM (INSR; @1000nM): -5%
- remaining binding at 1 µM (INSR; @1000nM, read-out: %Control): 95%
- remaining binding at 1 µM (INSR; read-out: %Control @1000nM): 95%
- difference in %Control from compound Ib at 1 µM ([1]; @1000nM): 94.5%
- remaining binding at 1 µM ([1]; @1000nM, read-out: %Control): 100%
- remaining binding at 1 µM ([1]; read-out: %Control @1000nM): 100%
- inhibition at 1 µM [1]: < 1%
- %Control difference versus reference Ib at 1 µM (ROS1; @1000nM): -4%
- remaining binding at 1 µM (ROS1; @1000nM, read-out: %Control): 93%
- remaining binding at 1 µM (ROS1; read-out: %Control @1000nM): 93%

Structure (SMILES): CNC(=O)c1cnc(S(C)(=O)=O)nc1N1CCCC(n2nc(-c3ccc(Oc4ccccc4)cc3)c3c(N)ncnc32)C1 (centres unmarked) [Compound 8d, 4-(3-(4-Amino-3-(4-phenoxyphenyl)-1H-pyrazolo[3,4-d]pyrimidin-1-yl)piperidin-1-yl)-N-methyl-2-(methylsulfonyl)pyrimidine-5-carboxamide]
- difference in %Control versus compound Ib at 1 µM (CTK; @1000nM): -3%
- remaining binding at 1 µM (CTK; @1000nM, read-out: %Control): 77%
- remaining binding at 1 µM (CTK; read-out: %Control @1000nM): 77%
- NanoBRET IC50 (wild-type BTK): low to subnanomolar
- %Control @1000nM (FLT3(ITD,D835V)): 70%
- % difference (compound - Ib %Control) (FLT3(ITD,D835V)): -7%
- %Control (FLT3(ITD,D835V)): 70%
- difference in %Control from compound Ib at 1 µM (DDR1; @1000nM): -14%
- remaining binding at 1 µM (DDR1; @1000nM, read-out: %Control): 64%
- remaining binding at 1 µM (DDR1; read-out: %Control @1000nM): 64%
- difference in %Control from compound Ib at 1 µM (FLT3; @1000nM): 32%
- remaining binding at 1 µM (FLT3; @1000nM, read-out: %Control): 65%
- remaining binding at 1 µM (FLT3; read-out: %Control @1000nM): 65%
- difference in %Control versus compound Ib at 1 µM (FER; @1000nM): 0%
- remaining binding at 1 µM (FER; @1000nM, read-out: %Control): 100%
- remaining binding at 1 µM (FER; read-out: %Control @1000nM): 100%
- remaining binding at 1 µM (MET(M1250T); @1000nM, read-out: %Control): 100%
- remaining binding at 1 µM (MET(M1250T); read-out: %Control @1000nM): 100%
- remaining binding at 1 µM (KIT(V559D,V654A); @1000nM, read-out: %Control): 94%
- remaining binding at 1 µM (KIT(V559D,V654A); read-out: %Control @1000nM): 94%
- remaining binding at 1 µM (LTK; @1000nM, read-out: %Control): 100%
- remaining binding at 1 µM (LTK; read-out: %Control @1000nM): 100%
- difference in %Control versus compound Ib at 1 µM (FRK; @1000nM): 33.7%
- remaining binding at 1 µM (FRK; @1000nM, read-out: %Control): 43%
- remaining binding at 1 µM (FRK; read-out: %Control @1000nM): 43%
- %Control difference from compound Ib at 1 µM (EGFR(L858R); @1000nM): 39.1%
- remaining binding at 1 µM (EGFR(L858R); @1000nM, read-out: %Control): 41%
- remaining binding at 1 µM (EGFR(L858R); read-out: %Control @1000nM): 41%
- difference in %Control from reference compound Ib at 1 µM (ABL1-nonphosphorylated; @1000nM): 24.5%
- remaining binding at 1 µM (ABL1-nonphosphorylated; @1000nM, read-out: %Control): 33%
- remaining binding at 1 µM (ABL1-nonphosphorylated; read-out: %Control @1000nM): 33%
- difference in %Control versus compound Ib at 1 µM (INSR; @1000nM): 0%
- remaining binding at 1 µM (INSR; @1000nM, read-out: %Control): 100%
- remaining binding at 1 µM (INSR; read-out: %Control @1000nM): 100%
- difference in %Control from compound Ib at 1 µM ([1]; @1000nM): 67.5%
- remaining binding at 1 µM ([1]; @1000nM, read-out: %Control): 73%
- remaining binding at 1 µM ([1]; read-out: %Control @1000nM): 73%
- inhibition at 1 µM [1]: 27%
- %Control difference versus reference Ib at 1 µM (ROS1; @1000nM): 3%
- remaining binding at 1 µM (ROS1; @1000nM, read-out: %Control): 100%
- remaining binding at 1 µM (ROS1; read-out: %Control @1000nM): 100%
